Patent publication US12344587B2, “Synthetic retinoids for use in RAR activation” (UNIVERSITY OF DURHAM, priority 2019, dated 2025)
Values after ≈ are worked out from the molar mass of the structure shown.

Columns and labels:
ERK1/2 = ERK1/2 phosphorylation assay, AlphaLISA SureFire Ultra (non-genomic activity); type: cell-based; parameters: Non-genomic activity (ERK½ Phosphorylation Assay) Efficacy (Emax): unit not given here; details: SH-SY5Y cells; for EC50: Homo sapiens, 0.5 h, read-out: Non-genomic activity (ERK½ Phosphorylation Assay) Potency (EC50); for EC50 / Non-genomic activity (ERK½ Phosphorylation Assay) Efficacy (Emax): serum-free, 30 minutes stimulation; for Erk 1/2 phosphorylation potency/efficacy compared to retinoic acid: versus retinoic acid
Protocol: The non-genomic activity of synthetic retinoids was evaluated by measuring their ability to induce phosphorylation of ERK1/2 using the AlphaLISA® SureFire® Ultra ERK1/2 kit.
In this assay, SH-SY5Y cells (100,000 cells/well) were plated in 96-well plates and serum-starved in DMEM for 24 hours. Retinoids were tested at concentrations from 10−5 M to 10−11 M and at a final concentration of 0.1% DMSO in the medium. The assay was carried out on the SH-SY5Y cells in serum-free DMEM, cells were stimulated by retinoid for 30 minutes at 37° C.
At the end of the assay, the medium was removed, and cells were lysed in 50 μl of freshly prepared 1× lysis buffer (supplied in the kit). The 96-well plate was agitated on an orbital shaker (SO1, Stuart Scientific) at approximately 350 rpm for 10 minutes at room temperature.
In the meantime, the activation buffer was diluted 25-fold in the reaction buffers. Under green light in a dark room, the acceptor beads were diluted 50-fold in the freshly prepared reaction mix while the donor beads were diluted 50-fold in dilution buffer to obtain two final reaction mixtures.
10 μl of cell lysate was then transferred per well into 384-well white Proxiplates plates (PerkinElmer) and 5 μl of each prepared acceptor and donor reaction mixture was added under green light in a dark room. Plates were wrapped with aluminium foil and incubated at room temperature for at least 3 hours. Readings were taken using an Envision system (PerkinElmer Life Sciences) using the AlphaScreen® settings.

[1] = test system: retinoic acid response element (RARE); test: X-Gal RA based reporter assay (genomic activity); type: cell-based; details: for Genomic Activity (X-Gal RA Based Reporter Assay) Efficacy (Emax) / EC50: Sil-15 reporter cells, overnight incubation; for EC50: read-out: Genomic Activity (X-Gal RA Based Reporter Assay) Potency (EC50); for Genomic activity and potency compared to retinoic acid (ATRA): X-Gal assay, versus ATRA
Protocol: The genomic activity of synthetic retinoids was evaluated by determining their efficiency of inducing transcription using the X-Gal Assay. The X-Gal Assay utilizes Sil-15 reporter cells in which the transcription of the LacZ gene is under control of a promoter linked to a retinoic acid response element (RARE). After treatment of the reporter cells with retinoids, the ability of the compounds to induce transcription can be attained by monitoring and quantifying the activity of β-galactosidase produced by the reporter cells.
Sil-15 cells were plated at 100,000 cells per well in 96-well plates coated in 0.1% gelatin. The following day, serial dilutions of retinoid ligands, prepared in Dulbecco's Modified Eagle's Medium (DMEM) containing 10% foetal calf serum (FCS) were added at concentrations from 10^−6 M to 10^−14 M and the plates were incubated overnight. All concentrations for the ATRA standard curve and the other retinoid ligands were tested in triplicate.
The next day, the assay plates were washed twice with phosphate buffered saline (PBS), fixed with 100 μl per well of 1% glutaraldehyde and 1 mM MgCl2 in PBS for 15 minutes and washed twice with PBS. β-galactosidase activity was detected by the addition of 100 μl of freshly-prepared 0.2% X-Gal in 1 mM MgCl2, 3.3 mM potassium ferricyanide and 3.3 mM potassium ferrocyanide in PBS per well. Plates were incubated for 6 hours at 37° C. in 5% CO2 and colour change was detected by reading the plates at 650 nm on an Emax Precision Microplate Reader (Molecular Devices).

SH-SY5Y cells = test: Induction of neurite outgrowth; type: cell-based; details: 10 nM, 5 days; for fold induction at 0.01 µM: Homo sapiens, 120 h, read-out: Neurite Outgrowth Fold increase
Protocol: SY—SY5Y cells were plated at 10,000 cells/well in 12-well plates containing acid-treated/poly-L-lysine-coated coverslips. After 24 hours, each retinoid was added to the medium at a concentration of 10 nM and the plates were incubated for 5 days. After retinoid treatment, SH-SY5Y cells on coverslips were washed twice in PBS, fixed in 4% paraformaldehyde (PFA) for 20 minutes at room temperature, and washed twice with PBS.
For immunocytochemical staining of neurites, cells on coverslips were washed three times in PBS, and incubated in blocking solution (10% donkey serum and 0.1% triton X-100 in PBS) for 1 hour at room temperature. Cells were then labelled by incubation overnight at 4° C. with β-III tubulin primary antibody (Sigma-Aldrich) diluted 1:1000 in blocking buffer. Following incubation overnight, cells were washed three times with PBS containing 0.1% Triton X-100 solution (PBST) before incubation with anti-mouse monoclonal secondary antibody (1:300 in PBST; Jackson Immunoresearch) for 2 hours at room temperature. Finally, after three washes in PBST and a final wash in PBS, the coverslips were mounted on slides and stored at 4° C.
ImageJ software with the NeuronJ plugin was used to quantify neurite outgrowth on stained cells. For each experiment, 10 different randomly selected images were taken from each cover slip using a Nikon Eclipse E400 fluorescence microscope. Each image was converted into an 8-bit image (necessary for the NeuronJ plugin) and optimised with the brightness and contrast tool in GIMP (GNU Image Manipulation Program). For each image, individual traces were drawn for each clearly-identifiable neurite using the tracing tool in the NeuronJ plugin. Neurite length was measured in pixels and transformed into the corresponding length in μm depending on the magnification used. The average neurite length for each image was calculated by dividing total neurite length by the total number of neurites per image. Ten images per cover slip were measured and the mean calculated for the coverslip overall. Coverslips were in triplicate for each retinoid and concentration.

[2] = Turbidimetric aqueous solubility; type: physicochemical; details: aqueous buffer, kinetic from dmso stock, 0.01 M phosphate buffered saline pH 7.4, 1% DMSO, 37° C.
Protocol: Test compound (10 mM in DMSO) is serially diluted to give solutions of 0.1, 0.3, 1 and 3 mM in DMSO. Each test compound concentration is then further diluted 1 in 100 in buffer (0.01 M phosphate buffered saline pH 7.4) so that the final DMSO concentration was 1% and the final test compound concentrations were 1, 3, 10, 30 and 100 μM. The experiment was performed at 37° C. and each concentration sample was incubated in 7 replicate wells. The plates were incubated for 2 hr at 37° C. before the absorbance was measured at 620 nm. The solubility of the sample was estimated from the concentration of test compound that produced an increase in absorbance above vehicle control (i.e., 1% DMSO in buffer).

| SMILES | EC50 (ERK1/2) | Non-genomic activity (ERK½ Phosphorylation Assay) Efficacy (Emax) (ERK1/2) | Genomic Activity (X-Gal RA Based Reporter Assay) Efficacy (Emax) [1] | EC50 [1] | fold induction at 0.01 µM (SH-SY5Y cells) | Erk 1/2 phosphorylation potency/efficacy compared to retinoic acid (ERK1/2) | Genomic activity and potency compared to retinoic acid (ATRA) [1] | Average neurite length compared to cells treated with ATRA (SH-SY5Y cells) | solubility at 2 h [2] |
| --- | --- | --- | --- | --- | --- | --- | --- | --- | --- |
| Cc1cc2c(cc1C#Cc1ncc(C(=O)O)cn1)C(C)(C)CCC2(C)C [DC707] | 4.32 nM | 44.87 | 192.2 | 0.826 nM | 1.2 |  |  |  |  |
| CC1(C)CCC(C)(C)c2cc(C#Cc3ccc(C(=O)O)c(F)c3)ccc21 [DC525] | 2.49 nM | 42.44 | 190 | 0.21 nM | 1.9 | higher potency | increased genomic activity and potency | significantly larger average neurite length |  |
| Cc1cc2c(cc1C#Cc1ccc(C(=O)O)c(F)c1)C(C)(C)CCC2(C)C [DC667] | 4.85 nM | 44.3 | 169.8 | 0.134 nM | 1.4 |  |  |  |  |
| Cc1cc2c(cc1C#Cc1ccc(C(=O)O)cc1F)C(C)(C)CCC2(C)C [DC559] | 15.7 nM | 40.68 | 139.8 | 1.38 nM | 1.4 |  |  |  |  |
| COc1cc2c(cc1C#Cc1cc(F)c(C(=O)O)c(F)c1)C(C)(C)CCC2(C)C [DC657] | 3.5 nM | 72.45 | 154.9 | 0.146 nM | 1.4 |  |  |  |  |
| COc1cc2c(cc1C#Cc1ncc(C(=O)O)cn1)C(C)(C)CCC2(C)C [DC706] | 90.8 nM | 36.87 | 265.9 | 603 nM | 1.3 |  |  |  |  |
| Cc1cc2c(cc1C#Cc1ccc(C(=O)O)cn1)C(C)(C)CCC2(C)C [DC656] | 502 nM | 56.77 | 177.2 | 0.427 nM | 1.6 |  |  |  |  |
| COc1cc2c(cc1C#Cc1ccc(C(=O)O)cn1)C(C)(C)CCC2(C)C [DC646] | 144 nM | 77.63 | 176.3 | 3.16 nM | 1.7 |  |  |  |  |
| COc1cc2c(cc1C#Cc1ccc(C(=O)O)cc1F)C(C)(C)CCC2(C)C [DC564] | 18.1 nM | 44.46 | 177.1 | 5.31 nM | 1.3 |  |  |  |  |
| CC1(C)CCC(C)(C)c2cc(C#Cc3cc(F)c(C(=O)O)c(F)c3)ccc21 [DC540] | 159 nM | 79.73 | 185.3 | 0.015 nM | 1.7 | higher potency and efficacy | increased genomic activity and potency |  |  |
| CC1=C(/C=C/C(C)=C/C=C/C(C)=C/C(=O)O)C(C)(C)CCC1 [ATRA, All-trans-retinoic acid, reference compound] | 33.1 nM | 48.55 | 170.1 | 1.04 nM | 1.4 |  |  |  |  |
| CC1(C)CCC(C)(C)c2cc(C#Cc3ccc(C(=O)O)cc3Cl)ccc21 [DC567] | 18.1 nM | 44.46 | 97.21 | 13.6 nM | 1.6 |  |  |  |  |
| CC1(C)CCC(C)(C)c2cc(C#Cc3ccc(C(=O)O)cn3)ccc21 [DC527] | 30.6 nM | 92.51 | 209.8 | 0.00347 nM | 1.9 | higher potency and efficacy | increased genomic activity and potency | significantly larger average neurite length |  |
| CC1(C)CCC(C)(C)c2cc(C#Cc3cnc(C(=O)O)cn3)ccc21 [DC529] | 30.4 nM | 28.85 | 174 | 3.89 nM | 1.3 |  |  |  |  |
| CC1(C)CCC(C)(C)c2cc(C#Cc3ccc(C(=O)O)cc3)ccc21 [EC23, reference compound] | 31.8 nM | 91.93 | 169.18 | 0.128 nM | 2.2 |  |  |  | 6.5 µM (≈ 2.16 µg/mL) |
| CC1(C)CCC(C)(C)c2nc(C#Cc3ccc(C(=O)O)cc3F)cnc21 [DC712] | 6.35 nM | 94 | 179.7 | 0.382 nM | 1.2 |  |  |  |  |
